# Several values for one entry are separate records, joined by “and”; a condition that tells them apart may be missing. Equal values may be shown once. Read-outs that look alike come from different tables or passages of the source.
# Test: Plasma concentrations and TK parameters, 72-hour continuous intravenous infusion
# Type: in vivo, Sprague-Dawley rats
# Settings: for concentration at 84 h / concentration at 96 h / concentration at 24 h / concentration at 48 h / concentration at 72 h / concentration at 78 h: Sprague-Dawley, rat, plasma, iv
# Method: The safety and pharmacokinetics of PPTN (KB-1801) in rats receiving continuous intravenous injections of SBECD-containing solutions were analyzed. Three cohorts of six male and six female rats each were given continuous intravenous infusion of PPTN (KB-1801) at 10 mg/kg/day, 30 mg/kg/day or 100 mg/kg/day in a dosing solution containing PPTN at 0.25 mg/mL, 0.75 mg/mL or 2.5 mg/mL and SBECD at about 3.8%. Dosing volume was 40 mIkg/day. [table]
smiles,measurement,setting,value
"O=C(O)c1cc(-c2ccc(C3CCNCC3)cc2)c2ccc(-c3ccc(C(F)(F)F)cc3)cc2c1 [KB-1801, 4-[4-(piperidin-4-yl)phenyl]-7-[4-(trifluoromethyl)phenyl]-2-naphthoic acid]",concentration at 84 h,"female, 30 mg/kg/day, female Sprague-Dawley rats, 72-hour intravenous infusion at 30 mg/kg/day, time 84 h, read-out: Plasma concentration, Mean",306 ng/mL
same,concentration at 96 h,"female, 30 mg/kg/day, female Sprague-Dawley rats, 72-hour intravenous infusion at 30 mg/kg/day, time 96 h, read-out: Plasma concentration, Mean",90.8 ng/mL
same,concentration at 96 h,"female, 30 mg/kg/day, female Sprague-Dawley rats, 72-hour intravenous infusion at 30 mg/kg/day, time 96 h, read-out: Plasma concentration, individual animal",81.6 ng/mL
same,concentration at 24 h,"female, 100 mg/kg/day, female Sprague-Dawley rats, 72-hour intravenous infusion at 100 mg/kg/day, time 24 h, read-out: Plasma concentration, Mean",7740 ng/mL
same,concentration at 24 h,"female, 100 mg/kg/day, female Sprague-Dawley rats, 72-hour intravenous infusion at 100 mg/kg/day, time 24 h, read-out: Plasma concentration, individual animal",8270 ng/mL
same,concentration at 48 h,"female, 100 mg/kg/day, female Sprague-Dawley rats, 72-hour intravenous infusion at 100 mg/kg/day, time 48 h, read-out: Plasma concentration, Mean",6720 ng/mL
same,concentration at 48 h,"female, 100 mg/kg/day, female Sprague-Dawley rats, 72-hour intravenous infusion at 100 mg/kg/day, time 48 h, read-out: Plasma concentration, individual animal",6070 ng/mL
same,concentration at 72 h,"female, 100 mg/kg/day, female Sprague-Dawley rats, 72-hour intravenous infusion at 100 mg/kg/day, time 72 h, read-out: Plasma concentration, Mean",6840 ng/mL
same,concentration at 72 h,"female, 100 mg/kg/day, female Sprague-Dawley rats, 72-hour intravenous infusion at 100 mg/kg/day, time 72 h, read-out: Plasma concentration, individual animal",7110 ng/mL
same,concentration at 78 h,"female, 100 mg/kg/day, female Sprague-Dawley rats, 72-hour intravenous infusion at 100 mg/kg/day, time 78 h, read-out: Plasma concentration, Mean",1820 ng/mL
same,concentration at 78 h,"female, 100 mg/kg/day, female Sprague-Dawley rats, 72-hour intravenous infusion at 100 mg/kg/day, time 78 h, read-out: Plasma concentration, individual animal",1900 ng/mL
same,concentration at 84 h,"female, 100 mg/kg/day, female Sprague-Dawley rats, 72-hour intravenous infusion at 100 mg/kg/day, time 84 h, read-out: Plasma concentration, Mean",987 ng/mL
same,concentration at 84 h,"female, 100 mg/kg/day, female Sprague-Dawley rats, 72-hour intravenous infusion at 100 mg/kg/day, time 84 h, read-out: Plasma concentration, individual animal",841 ng/mL
same,concentration at 96 h,"female, 100 mg/kg/day, female Sprague-Dawley rats, 72-hour intravenous infusion at 100 mg/kg/day, time 96 h, read-out: Plasma concentration, Mean",281 ng/mL
same,concentration at 96 h,"female, 100 mg/kg/day, female Sprague-Dawley rats, 72-hour intravenous infusion at 100 mg/kg/day, time 96 h, read-out: Plasma concentration, individual animal",288 ng/mL
same,"Plasma concentration, individual animal","male Sprague-Dawley rats, 72-hour intravenous infusion at 10 mg/kg/day, time 24 h, 10 mg/kg/day",547.8 ng/mL and 952.8 ng/mL
same,"Plasma concentration, individual animal","male Sprague-Dawley rats, 72-hour intravenous infusion at 10 mg/kg/day, time 48 h, 10 mg/kg/day",539.5 ng/mL and 752.7 ng/mL
same,"Plasma concentration, individual animal","male Sprague-Dawley rats, 72-hour intravenous infusion at 10 mg/kg/day, time 72 h, 10 mg/kg/day",617.8 ng/mL and 545.9 ng/mL
same,"Plasma concentration, individual animal","male Sprague-Dawley rats, 72-hour intravenous infusion at 10 mg/kg/day, time 78 h, 10 mg/kg/day",205.5 ng/mL and 170.5 ng/mL
same,"Plasma concentration, individual animal","male Sprague-Dawley rats, 72-hour intravenous infusion at 10 mg/kg/day, time 84 h, 10 mg/kg/day",82.6 ng/mL and 128.1 ng/mL
same,"Plasma concentration, individual animal","male Sprague-Dawley rats, 72-hour intravenous infusion at 10 mg/kg/day, time 96 h, 10 mg/kg/day",60.2 ng/mL and 45.0 ng/mL
same,"Plasma concentration, individual animal","male Sprague-Dawley rats, 72-hour intravenous infusion at 30 mg/kg/day, time 24 h, 30 mg/kg/day",1855.0 ng/mL and 2482.4 ng/mL
same,"Plasma concentration, individual animal","male Sprague-Dawley rats, 72-hour intravenous infusion at 30 mg/kg/day, time 48 h, 30 mg/kg/day",2175.6 ng/mL and 2510.8 ng/mL
same,"Plasma concentration, individual animal","male Sprague-Dawley rats, 72-hour intravenous infusion at 30 mg/kg/day, time 72 h, 30 mg/kg/day",1871.2 ng/mL and 2031.5 ng/mL
same,"Plasma concentration, individual animal","male Sprague-Dawley rats, 72-hour intravenous infusion at 30 mg/kg/day, time 78 h, 30 mg/kg/day",690.2 ng/mL and 818.5 ng/mL
same,"Plasma concentration, individual animal","male Sprague-Dawley rats, 72-hour intravenous infusion at 30 mg/kg/day, time 84 h, 30 mg/kg/day",273.1 ng/mL and 309.1 ng/mL
same,"Plasma concentration, individual animal","male Sprague-Dawley rats, 72-hour intravenous infusion at 30 mg/kg/day, time 96 h, 30 mg/kg/day",164.1 ng/mL and 213.1 ng/mL
same,"Plasma concentration, individual animal","male Sprague-Dawley rats, 72-hour intravenous infusion at 100 mg/kg, time 24 h, 100 mg/kg",7597.9 ng/mL and 10702.8 ng/mL
same,"Plasma concentration, individual animal","male Sprague-Dawley rats, 72-hour intravenous infusion at 100 mg/kg, time 48 h, 100 mg/kg",6182.8 ng/mL and 7504.3 ng/mL
same,"Plasma concentration, individual animal","male Sprague-Dawley rats, 72-hour intravenous infusion at 100 mg/kg, time 72 h, 100 mg/kg",7768.2 ng/mL
same,"Plasma concentration, individual animal","male Sprague-Dawley rats, 72-hour intravenous infusion at 100 mg/kg, time 78 h, 100 mg/kg",1893.5 ng/mL and 2808.6 ng/mL
same,"Plasma concentration, individual animal","male Sprague-Dawley rats, 72-hour intravenous infusion at 100 mg/kg, time 84 h, 100 mg/kg",1818.2 ng/mL
same,"Plasma concentration, individual animal","male Sprague-Dawley rats, 72-hour intravenous infusion at 100 mg/kg, time 96 h, 100 mg/kg",333.5 ng/mL and 482.1 ng/mL
same,concentration at 24 h,"male, 10 mg/kg/day, male Sprague-Dawley rats, 72-hour intravenous infusion at 10 mg/kg/day, time 24 h, read-out: Plasma concentration, Mean",803 ng/mL
same,concentration at 24 h,"male, 10 mg/kg/day, male Sprague-Dawley rats, 72-hour intravenous infusion at 10 mg/kg/day, time 24 h, read-out: Plasma concentration, individual animal",908 ng/mL
same,concentration at 48 h,"male, 10 mg/kg/day, male Sprague-Dawley rats, 72-hour intravenous infusion at 10 mg/kg/day, time 48 h, read-out: Plasma concentration, Mean",602 ng/mL
same,concentration at 48 h,"male, 10 mg/kg/day, male Sprague-Dawley rats, 72-hour intravenous infusion at 10 mg/kg/day, time 48 h, read-out: Plasma concentration, individual animal",515 ng/mL
same,concentration at 72 h,"male, 10 mg/kg/day, male Sprague-Dawley rats, 72-hour intravenous infusion at 10 mg/kg/day, time 72 h, read-out: Plasma concentration, Mean",594 ng/mL
same,concentration at 72 h,"male, 10 mg/kg/day, male Sprague-Dawley rats, 72-hour intravenous infusion at 10 mg/kg/day, time 72 h, read-out: Plasma concentration, individual animal",618 ng/mL
same,concentration at 78 h,"male, 10 mg/kg/day, male Sprague-Dawley rats, 72-hour intravenous infusion at 10 mg/kg/day, time 78 h, read-out: Plasma concentration, Mean",208 ng/mL
same,concentration at 78 h,"male, 10 mg/kg/day, male Sprague-Dawley rats, 72-hour intravenous infusion at 10 mg/kg/day, time 78 h, read-out: Plasma concentration, individual animal",249 ng/mL
same,concentration at 84 h,"male, 10 mg/kg/day, male Sprague-Dawley rats, 72-hour intravenous infusion at 10 mg/kg/day, time 84 h, read-out: Plasma concentration, Mean",98.9 ng/mL
same,concentration at 84 h,"male, 10 mg/kg/day, male Sprague-Dawley rats, 72-hour intravenous infusion at 10 mg/kg/day, time 84 h, read-out: Plasma concentration, individual animal",86 ng/mL
same,concentration at 96 h,"male, 10 mg/kg/day, male Sprague-Dawley rats, 72-hour intravenous infusion at 10 mg/kg/day, time 96 h, read-out: Plasma concentration, Mean",55.1 ng/mL
same,concentration at 96 h,"male, 10 mg/kg/day, male Sprague-Dawley rats, 72-hour intravenous infusion at 10 mg/kg/day, time 96 h, read-out: Plasma concentration, individual animal",60 ng/mL
same,concentration at 24 h,"male, 30 mg/kg/day, male Sprague-Dawley rats, 72-hour intravenous infusion at 30 mg/kg/day, time 24 h, read-out: Plasma concentration, Mean",1950 ng/mL
same,concentration at 24 h,"male, 30 mg/kg/day, male Sprague-Dawley rats, 72-hour intravenous infusion at 30 mg/kg/day, time 24 h, read-out: Plasma concentration, individual animal",1520 ng/mL
same,concentration at 48 h,"male, 30 mg/kg/day, male Sprague-Dawley rats, 72-hour intravenous infusion at 30 mg/kg/day, time 48 h, read-out: Plasma concentration, Mean",2500 ng/mL
same,concentration at 48 h,"male, 30 mg/kg/day, male Sprague-Dawley rats, 72-hour intravenous infusion at 30 mg/kg/day, time 48 h, read-out: Plasma concentration, individual animal",2800 ng/mL
same,concentration at 72 h,"male, 30 mg/kg/day, male Sprague-Dawley rats, 72-hour intravenous infusion at 30 mg/kg/day, time 72 h, read-out: Plasma concentration, Mean",1670 ng/mL
same,concentration at 72 h,"male, 30 mg/kg/day, male Sprague-Dawley rats, 72-hour intravenous infusion at 30 mg/kg/day, time 72 h, read-out: Plasma concentration, individual animal",1110 ng/mL
same,concentration at 78 h,"male, 30 mg/kg/day, male Sprague-Dawley rats, 72-hour intravenous infusion at 30 mg/kg/day, time 78 h, read-out: Plasma concentration, Mean",736 ng/mL
same,concentration at 78 h,"male, 30 mg/kg/day, male Sprague-Dawley rats, 72-hour intravenous infusion at 30 mg/kg/day, time 78 h, read-out: Plasma concentration, individual animal",698 ng/mL
same,concentration at 84 h,"male, 30 mg/kg/day, male Sprague-Dawley rats, 72-hour intravenous infusion at 30 mg/kg/day, time 84 h, read-out: Plasma concentration, Mean",290 ng/mL
same,concentration at 84 h,"male, 30 mg/kg/day, male Sprague-Dawley rats, 72-hour intravenous infusion at 30 mg/kg/day, time 84 h, read-out: Plasma concentration, individual animal",289 ng/mL
same,concentration at 96 h,"male, 30 mg/kg/day, male Sprague-Dawley rats, 72-hour intravenous infusion at 30 mg/kg/day, time 96 h, read-out: Plasma concentration, Mean",172 ng/mL
same,concentration at 96 h,"male, 30 mg/kg/day, male Sprague-Dawley rats, 72-hour intravenous infusion at 30 mg/kg/day, time 96 h, read-out: Plasma concentration, individual animal",139 ng/mL
same,concentration at 24 h,"male, 100 mg/kg, male Sprague-Dawley rats, 72-hour intravenous infusion at 100 mg/kg, time 24 h, read-out: Plasma concentration, Mean",9550 ng/mL
same,concentration at 24 h,"male, 100 mg/kg, male Sprague-Dawley rats, 72-hour intravenous infusion at 100 mg/kg, time 24 h, read-out: Plasma concentration, individual animal",10300 ng/mL
same,concentration at 48 h,"male, 100 mg/kg, male Sprague-Dawley rats, 72-hour intravenous infusion at 100 mg/kg, time 48 h, read-out: Plasma concentration, Mean",7030 ng/mL
same,concentration at 48 h,"male, 100 mg/kg, male Sprague-Dawley rats, 72-hour intravenous infusion at 100 mg/kg, time 48 h, read-out: Plasma concentration, individual animal",7400 ng/mL
same,concentration at 72 h,"male, 100 mg/kg, male Sprague-Dawley rats, 72-hour intravenous infusion at 100 mg/kg, time 72 h, read-out: Plasma concentration, Mean",9790 ng/mL
same,concentration at 72 h,"male, 100 mg/kg, male Sprague-Dawley rats, 72-hour intravenous infusion at 100 mg/kg, time 72 h, read-out: Plasma concentration, individual animal",11800 ng/mL
same,concentration at 78 h,"male, 100 mg/kg, male Sprague-Dawley rats, 72-hour intravenous infusion at 100 mg/kg, time 78 h, read-out: Plasma concentration, Mean",2640 ng/mL
same,concentration at 78 h,"male, 100 mg/kg, male Sprague-Dawley rats, 72-hour intravenous infusion at 100 mg/kg, time 78 h, read-out: Plasma concentration, individual animal",3220 ng/mL
same,concentration at 84 h,"male, 100 mg/kg, male Sprague-Dawley rats, 72-hour intravenous infusion at 100 mg/kg, time 84 h, read-out: Plasma concentration, Mean",2230 ng/mL
same,concentration at 84 h,"male, 100 mg/kg, male Sprague-Dawley rats, 72-hour intravenous infusion at 100 mg/kg, time 84 h, read-out: Plasma concentration, individual animal",2650 ng/mL
same,concentration at 96 h,"male, 100 mg/kg, male Sprague-Dawley rats, 72-hour intravenous infusion at 100 mg/kg, time 96 h, read-out: Plasma concentration, Mean",471 ng/mL
same,concentration at 96 h,"male, 100 mg/kg, male Sprague-Dawley rats, 72-hour intravenous infusion at 100 mg/kg, time 96 h, read-out: Plasma concentration, individual animal",598 ng/mL
same,Time for plasma PPTN concentrations to reach steady state,"rats, continuous intravenous infusion",≤ 24 h
same,"Plasma PPTN concentrations, relation to dose","rats, continuous intravenous infusion 10, 30, 100 mg/kg/day",linearly dose-related

# Reference: US20220202799A1, “PHARMACEUTICAL FORMULATIONS CONTAINING P2Y14 ANTAGONISTS” (priority 2019, published 2022)
